Patent US11596639B2, “Substituted indole Mcl-1 inhibitors” (Vanderbilt University, priority 2016, dated 2023)
Read-outs that look alike come from different tables or passages of the source.

What was measured:
Mcl-1 = Mcl-1 (Homo sapiens (Human), UniProt Q07820); assay: TR-FRET binding assay, FITC-Bak peptide and MBP-tagged Mcl-1; settings: read-out: Ki for Inhibition of Mcl-1 by TR-FRET assay
Protocol: Compounds are diluted in DMSO in a 16-point, semilog serial dilution scheme. […] The plate was mixed and incubated for 3 hours at room temperature. […] TR-FRET signal is plotted and IC50 and Ki values are calculated in the same manner as the fluorescence polarization anisotropy based competition assays.

[1] = system: H929 human cancer cell lines; assay: Cellular viability / proliferation (Cell TiterGlo, 72 h); format: cell-based
How it was run: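 Top dose 50 μM, serially diluted 2-fold, applied one day after seeding (1,000 cells/well, 10% FBS), DMSO below 1%.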

[2] = Homo sapiens, NCI-H929, 72 h, read-out: GI50 on cellular proliferation of H929 human cancer cell lines, H929 cells, 72 h, Cell TiterGlo, 10% FBS

Chain of Mcl-1 (Q07820 172-327): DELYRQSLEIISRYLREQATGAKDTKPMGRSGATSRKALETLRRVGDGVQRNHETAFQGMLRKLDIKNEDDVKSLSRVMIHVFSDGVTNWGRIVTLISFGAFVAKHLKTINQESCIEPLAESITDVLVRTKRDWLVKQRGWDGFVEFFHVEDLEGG

Row | SMILES | Ki (Mcl-1) | GI50 [1, 2] | GI50 ([1]; read-out: GI50 on cellular proliferation of H929 human cancer cell lines, H929 cells, 72 h, Cell TiterGlo, 10% FBS)
1 | Cc1cc(OCCCc2c3n(c4c(-c5c(C)nn(C)c5C)c(Cl)ccc24)[C@H](C)CN(c2cc(NC(=O)CN4CCCCC4)cc4c(C(=O)O)cn(C)c24)C3=O)cc(C)c1Cl [Example 533, (R)-7-(7-Chloro-10-(3-(4-chloro-3,5-dimethylphenoxy)propyl)-4-methyl-1-oxo-6-(1,3,5-trimethyl-1H-pyrazol-4-yl)-3,4-dihydropyrazino[1,2-a]indol-2(1H)-yl)-1-methyl-5-(2-(piperidin-1-yl)acetamido)-1H-indole-3-carboxylic acid] | 0.69 nM | 1300 nM | –
2 | Cc1cc(OCCCc2c3n(c4c(-c5c(C)nn(C)c5C)c(Cl)ccc24)[C@H](C)CN(c2cc(CN4CCOCC4)cc4c(C(=O)O)cn(C)c24)C3=O)cc(C)c1Cl [Example 549, (R)-7-(7-chloro-10-(3-(4-chloro-3,5-dimethylphenoxy)propyl)-4-methyl-1-oxo-6-(1,3,5-trimethyl-1H-pyrazol-4-yl)-3,4-dihydropyrazino[1,2-a]indol-2(1H)-yl)-1-methyl-5-(morpholinomethyl)-1H-indole-3-carboxylic acid] | 0.34 nM | 340 nM | –
3 | Cc1ccnc(Cn2cc(C(=O)O)c3cccc(N4C[C@@H](C)n5c(c(CCCOc6cc(C)c(Cl)c(C)c6)c6ccc(Cl)c(-c7c(C)nn(C)c7C)c65)C4=O)c32)c1 [Example 484, (R)-7-(7-Chloro-10-(3-(4-chloro-3,5-dimethylphenoxy)propyl)-4-methyl-1-oxo-6-(1,3,5-trimethyl-1H-pyrazol-4-yl)-3,4-dihydropyrazino[1,2-a]indol-2(1H)-yl)-1-((4-methylpyridin-2-yl)methyl)-1H-indole-3-carboxylic acid] | < 0.2 nM | – | 310 nM
4 | Cc1cc(OCCCc2c3n(c4c(-c5c(C)nn(C)c5C)c(Cl)ccc24)[C@H](C)CN(c2cn(C)c4ccc(-c5nnc6ccccn56)cc24)C3=O)cc(C)c1Cl [Example 675, (R)-2-(5-([1,2,4]Triazolo[4,3-a]pyridin-3-yl)-1-methyl-1H-indol-3-yl)-7-chloro-10-(3-(4-chloro-3,5-dimethylphenoxy)propyl)-4-methyl-6-(1,3,5-trimethyl-1H-pyrazol-4-yl)-3,4-dihydropyrazino[1,2-a]indol-1(2H)-one] | 28 nM | 4800 nM | –
5 | Cc1cc(OCCCc2c3n(c4c(-c5c(C)nn(C)c5C)c(Cl)ccc24)[C@H](C)CN(c2cc(NC(=O)CN(C)C)cc4c(C(=O)O)cn(C)c24)C3=O)cc(C)c1Cl [Example 542, (R)-7-(7-Chloro-10-(3-(4-chloro-3,5-dimethylphenoxy)propyl)-4-methyl-1-oxo-6-(1,3,5-trimethyl-1H-pyrazol-4-yl)-3,4-dihydropyrazino[1,2-a]indol-2(1H)-yl)-5-(2-(dimethylamino)acetamido)-1-methyl-1H-indole-3-carboxylic acid] | 0.48 nM | 3300 nM | –
6 | Cc1cnc(-n2cnc(-c3ccc4c(c3)c(N3C[C@@H](C)n5c(c(CCCOc6cc(C)c(Cl)c(C)c6)c6ccc(Cl)c(-c7c(C)nn(C)c7C)c65)C3=O)cn4C)n2)nc1 [Example 700, (R)-7-Chloro-10-(3-(4-chloro-3,5-dimethylphenoxy)propyl)-4-methyl-2-(1-methyl-5-(1-(5-methylpyrimidin-2-yl)-1H-1,2,4-triazol-3-yl)-1H-indol-3-yl)-6-(1,3,5-trimethyl-1H-pyrazol-4-yl)-3,4-dihydropyrazino[1,2-a]indol-1(2H)-one] | 0.73 nM | 380 nM | –
7 | Cc1cc(N2C[C@@H](C)n3c(c(CCCOc4cc(C)c(Cl)c(C)c4)c4ccc(Cl)c(-c5c(C)nn(C)c5C)c43)C2=O)c2c(c1)cc(C(=O)O)n2Cc1cccc(N2CCCCC2)n1 [Example 505, (R)-7-(7-Chloro-10-(3-(4-chloro-3,5-dimethylphenoxy)propyl)-4-methyl-1-oxo-6-(1,3,5-trimethyl-1H-pyrazol-4-yl)-3,4-dihydropyrazino[1,2-a]indol-2(1H)-yl)-5-methyl-1-((6-(piperidin-1-yl)pyridin-2-yl)methyl)-1H-indole-2-carboxylic acid] | 1.3 nM | 3200 nM | –
8 | COc1ccnc(Cn2c(C(=O)O)cc3c(OC)ccc(N4C[C@@H](C)n5c(c(CCCOc6cc(C)c(Cl)c(C)c6)c6ccc(Cl)c(-c7c(C)ncnc7C)c65)C4=O)c32)c1 [Example 476, (R)-7-(7-Chloro-10-(3-(4-chloro-3,5-dimethylphenoxy)propyl)-6-(4,6-dimethylpyrimidin-5-yl)-4-methyl-1-oxo-3,4-dihydropyrazino[1,2-a]indol-2(1H)-yl)-4-methoxy-1-((4-methoxypyridin-2-yl)methyl)-1H-indole-2-carboxylic acid] | < 0.2 nM | < 200 nM | –
9 | COCCn1cc(C(=O)O)c2c(OC)ccc(N3C[C@@H](C)n4c(c(CCCOc5cc(C)c(Cl)c(C)c5)c5ccc(Cl)c(-c6c(C)nn(C)c6C)c54)C3=O)c21 [Example 625, (R)-7-(7-chloro-10-(3-(4-chloro-3,5-dimethylphenoxy)propyl)-4-methyl-1-oxo-6-(1,3,5-trimethyl-1H-pyrazol-4-yl)-3,4-dihydropyrazino[1,2-a]indol-2(1H)-yl)-4-methoxy-1-(2-methoxyethyl)-1H-indole-3-carboxylic acid] | 0.22 nM | 420 nM | –
10 | Cc1cc(OCCCc2c3n(c4c(-c5c(C)nn(C)c5C)c(Cl)ccc24)[C@H](C)CN(c2cn(C[C@H]4CCCN4C)c4ccc(C(=O)O)cc24)C3=O)cc(C)c1Cl [Example 694, 3-((R)-7-chloro-10-(3-(4-chloro-3,5-dimethylphenoxy)propyl)-4-methyl-1-oxo-6-(1,3,5-trimethyl-1H-pyrazol-4-yl)-3,4-dihydropyrazino[1,2-a]indol-2(1H)-yl)-1-(((R)-1-methylpyrrolidin-2-yl)methyl)-1H-indole-5-carboxylic acid] | < 0.2 nM | 320 nM | –
11 | Cc1cc(N2C[C@@H](C)n3c(c(CCCOc4cc(C)c(Cl)c(C)c4)c4ccc(Cl)c(-c5c(C)nn(C)c5C)c43)C2=O)c2ncc(C(=O)O)cc2c1 [Example 658, (R)-8-(7-chloro-10-(3-(4-chloro-3,5-dimethylphenoxy)propyl)-4-methyl-1-oxo-6-(1,3,5-trimethyl-1H-pyrazol-4-yl)-3,4-dihydropyrazino[1,2-a]indol-2(1H)-yl)-6-methylquinoline-3-carboxylic acid] | < 0.2 nM | 250 nM | –
12 | Cc1cc(OCCCc2c3n(c4c(-c5c(C)nn(C)c5C)c(Cl)ccc24)[C@H](C)CN(c2cc(OC4CC[N+](C)(C)C4)cc4cc(C(=O)O)n(C)c24)C3=O)cc(C)c1Cl (stereo partly drawn) [Example 513, 3-((2-Carboxy-7-((R)-7-chloro-10-(3-(4-chloro-3,5-dimethylphenoxy)propyl)-4-methyl-1-oxo-6-(1,3,5-trimethyl-1H-pyrazol-4-yl)-3,4-dihydropyrazino[1,2-a]indol-2(1H)-yl)-1-methyl-1H-indol-5-yl)oxy)-1,1-dimethylpyrrolidin-1-ium 2,2,2-trifluoroacetate] | < 0.2 nM | 5300 nM | –
13 | COCc1cc(N2C[C@@H](C)n3c(c(CCCOc4cc(C)c(Cl)c(C)c4)c4ccc(Cl)c(-c5c(C)nn(C)c5C)c43)C2=O)c2c(c1)cc(C(=O)O)n2C [Example 607, (R)-7-(7-chloro-10-(3-(4-chloro-3,5-dimethylphenoxy)propyl)-4-methyl-1-oxo-6-(1,3,5-trimethyl-1H-pyrazol-4-yl)-3,4-dihydropyrazino[1,2-a]indol-2(1H)-yl)-5-(methoxymethyl)-1-methyl-1H-indole-2-carboxylic acid] | < 0.2 nM | < 200 nM | –
14 | COCCOCCn1c(C(=O)O)cc2cccc(N3C[C@@H](C)n4c(c(CCCOc5cc(C)c(Cl)c(C)c5)c5ccc(Cl)c(-c6c(C)nn(C)c6C)c54)C3=O)c21 [Example 634, (R)-7-(7-chloro-10-(3-(4-chloro-3,5-dimethylphenoxy)propyl)-4-methyl-1-oxo-6-(1,3,5-trimethyl-1H-pyrazol-4-yl)-3,4-dihydropyrazino[1,2-a]indol-2(1H)-yl)-1-(2-(2-methoxyethoxy)ethyl)-1H-indole-2-carboxylic acid] | < 0.2 nM | 280 nM | –
15 | COc1cc(N2C[C@@H](C)n3c(c(CCCOc4cc(C)c(Cl)c(C)c4)c4ccc(Cl)c(-c5c(C)ncnc5C)c43)C2=O)c2c(c1)cc(C(=O)O)n2C [Example 535, (R)-7-(7-Chloro-10-(3-(4-chloro-3,5-dimethylphenoxy)propyl)-6-(4,6-dimethylpyrimidin-5-yl)-4-methyl-1-oxo-3,4-dihydropyrazino[1,2-a]indol-2(1H)-yl)-5-methoxy-1-methyl-1H-indole-2-carboxylic acid] | < 0.2 nM | 280 nM | –
16 | COCCOc1cc(N2C[C@@H](C)n3c(c(CCCOc4cc(C)c(Cl)c(C)c4)c4ccc(Cl)c(-c5c(C)nn(C)c5C)c43)C2=O)c2c(c1)c(C(=O)O)cn2Cc1cc(C)cc(C)n1 [Example 652, (R)-7-(7-chloro-10-(3-(4-chloro-3,5-dimethylphenoxy)propyl)-4-methyl-1-oxo-6-(1,3,5-trimethyl-1H-pyrazol-4-yl)-3,4-dihydropyrazino[1,2-a]indol-2(1H)-yl)-1-((4,6-dimethylpyridin-2-yl)methyl)-5-(2-methoxyethoxy)-1H-indole-3-carboxylic acid] | 0.28 nM | 370 nM | –
17 | Cc1cc(OCCCc2c3n(c4c(-c5c(C)nn(C)c5C)c(Cl)ccc24)[C@H](C)CN(c2cc(CN4CCN(C)CC4)cc4cc(C(=O)O)n(C)c24)C3=O)cc(C)c1Cl [Example 544, (R)-7-(7-Chloro-10-(3-(4-chloro-3,5-dimethylphenoxy)propyl)-4-methyl-1-oxo-6-(1,3,5-trimethyl-1H-pyrazol-4-yl)-3,4-dihydropyrazino[1,2-a]indol-2(1H)-yl)-1-methyl-5-((4-methylpiperazin-1-yl)methyl)-1H-indole-2-carboxylic acid] | < 0.2 nM | 320 nM | –
